Test [1] has as its system 3D7 P. falciparum strain. Put plainly: parasite proliferation assay in infected red blood cells (SYBR Green I). The format is cell-based, Plasmodium falciparum. The following applies: 3D7 strain, read-out: EC50 3D7 strain. In short, it runs like this:
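P. falciparum 3D7 grown in O+ human erythrocytes to 3–8% parasitemia and exposed to compounds. Proliferation read as the increase in parasite DNA. Detection used SYBR Green I in saponin/triton-X/EDTA lysis buffer, with overnight lysis at room temperature.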

For test [2], the system named is W2 strain. Put plainly: parasite proliferation assay in infected red blood cells (SYBR Green I), W2 strain. The format is cell-based, Plasmodium falciparum. The text has this:
(§1) Compounds of the invention can be assayed to measure their capacity to inhibit proliferation of parasitemia in infected red blood cells. The proliferation is quantified by the addition of SYBR Green I (INVITROGEN)® dye which has a high affinity for double stranded DNA.

Test [3] concerns W2 strain. The test is described as above. It is filed as cell-based. The note with it: Erythrocyte.
Excerpt: as §1

Test [4] has as its system NF54. Briefly: parasite proliferation assay in infected red blood cells (SYBR Green I), NF54 strain. The format is cell-based. The following applies: Plasmodium falciparum, 3D7 / NF54, Erythrocyte; cell marked (NF54): NF54 strain instead of 3D7; read-out: EC50 (NF54), printed in the 3D7 strain column.
Excerpt: as §1

In test [5] the test system is Trypanosoma brucei Lister 427 strain. Briefly: Trypanosoma brucei proliferation assay (Cell Titer Glo). It is filed as cell-based. The note with it: Lister 427 bloodstream form, 48 hours, read-out: EC50, proliferation of T. brucei. The text has this: Compounds of the invention can be assayed to measure their capacity to inhibit proliferation of kinetoplastid parasite Trypanosoma brucei. The proliferation is quantified by the addition of Cell Titer Glo (Promega®) a luminescent cell viability assay that measures the number of viable cells in culture based on the quantification of cellular ATP amount, which is an indicator of metabolically active cells.
The following assay illustrates the invention without in any way limiting the scope of the invention. This parasite proliferation assay measures the increase in parasite growth using an assay that measures ATP activity, Cell Titer Glo®.
Trypanosoma brucei Lister 427 strain is grown in HMI-9 Trypanosome media for T. brucei bloodstream form. 30 μl of HMI-9 media is dispensed into 384 well assay plates. 200 nl of compounds of the invention (in DMSO), including anti-trypanosome controls (Pentamidine and suramin), are then transferred into the assay plates, as well as DMSO alone to serve as a negative control for inhibition. Then 25 μl of a suspension of T. brucei culture in HMI-9 media is dispensed into the assay plates. The final concentration of parasites in culture corresponds to 1.7% of 0.5 uM ATP activity with Cell Titer Glo® in HMI-9 media. […] The plates are then read for luminescence.

In test [6] the target is mitogen-activated protein kinase-activated protein kinase 2 (MapKap2 or MK-2) (Homo sapiens, UniProt P49137). Put plainly: MK-2 enzyme inhibition, single point concentration. The format is biochemical.
Chain of mitogen-activated protein kinase-activated protein kinase 2 (MapKap2 or MK-2) (P49137 whole entry): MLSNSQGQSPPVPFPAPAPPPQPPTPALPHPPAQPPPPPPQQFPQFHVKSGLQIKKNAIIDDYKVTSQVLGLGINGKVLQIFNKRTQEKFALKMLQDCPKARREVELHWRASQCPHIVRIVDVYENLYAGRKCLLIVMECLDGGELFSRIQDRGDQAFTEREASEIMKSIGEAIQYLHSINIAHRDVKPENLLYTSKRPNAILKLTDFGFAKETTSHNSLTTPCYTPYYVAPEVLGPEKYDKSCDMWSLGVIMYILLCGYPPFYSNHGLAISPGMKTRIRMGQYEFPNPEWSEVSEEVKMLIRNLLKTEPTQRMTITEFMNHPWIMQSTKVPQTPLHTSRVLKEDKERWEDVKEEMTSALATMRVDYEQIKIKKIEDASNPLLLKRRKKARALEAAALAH
For test [7], the target named is cannabinoid receptor 1 (CB1) (Homo sapiens, UniProt P21554). Put plainly: cannabinoid receptor 1 (CB1) IC50. The format is binding. The note with it: read-out: IC50 against CB1.
Chain of cannabinoid receptor 1 (CB1) (P21554 whole entry, species assumed): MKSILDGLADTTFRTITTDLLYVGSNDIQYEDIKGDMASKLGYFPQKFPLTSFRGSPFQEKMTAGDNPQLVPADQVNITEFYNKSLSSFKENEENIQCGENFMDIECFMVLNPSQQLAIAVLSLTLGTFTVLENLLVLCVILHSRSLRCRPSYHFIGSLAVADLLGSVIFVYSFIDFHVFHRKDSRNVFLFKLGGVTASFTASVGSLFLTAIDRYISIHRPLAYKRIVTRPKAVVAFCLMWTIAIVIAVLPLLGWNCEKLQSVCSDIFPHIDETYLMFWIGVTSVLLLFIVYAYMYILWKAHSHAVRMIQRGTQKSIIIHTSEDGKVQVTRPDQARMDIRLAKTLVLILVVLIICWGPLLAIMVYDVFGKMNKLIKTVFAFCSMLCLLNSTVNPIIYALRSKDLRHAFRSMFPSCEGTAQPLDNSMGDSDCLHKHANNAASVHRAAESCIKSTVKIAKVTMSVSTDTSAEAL
[8] abbreviates: Plasmodium falciparum, 3D7, Erythrocyte.
The mark [9] stands for this setting: Plasmodium falciparum, Erythrocyte.

pEC50, pIC50: −log10 of the molar value. Like-named read-outs stand apart in the source and are kept apart here. Bounds are passed on as bounds.

`CC(C)(N)C(=O)N1CCn2c(nc(-c3ccc(F)cc3)c2Nc2ccc(F)cc2)C1(C)C` [Compound 583]: the pEC50 in test [1] (setting [8]) is 8.00; in test [2] (setting [9]) it was 8.05.

For `CC(C)(N)C(=O)N1CCn2c(nc(-c3ccc(F)cc3)c2Nc2ccc(Cl)cc2)C1(C)C` [Compound 584], the pEC50 was 7.70 in test [1] (setting [8]) and 7.68 in test [2] (setting [9]).

Regarding `CC(C)(N)C(=O)N1CCn2c(nc(-c3ccc(F)cc3)c2Nc2ccc(F)c(F)c2)C1(C)C` [Compound 585], the figures for the pEC50 in test [1] (setting [8]) and in test [2] (setting [9]) were 8.00 and 8.15, respectively.

Turning to `CC(C)(N)C(=O)N1CCn2c(nc(-c3ccc(F)cc3)c2Nc2ccc(F)c(Cl)c2)C1(C)C` [Compound 586], the pEC50 was 8.00 in test [1] (setting [8]) and 8.15 in test [2] (setting [9]).

As for `CC(C)(N)C(=O)N1CCn2c(nc(-c3ccc(F)cc3)c2Nc2ccc(Cl)c(Cl)c2)C1(C)C` [Compound 587], the pEC50 in test [1] (setting [8]) is 8.00; in test [2] (setting [9]), 7.92.

`Cc1cc(Nc2c(-c3ccc(F)cc3)nc3n2CCN(C(=O)C(C)(C)N)C3(C)C)ccc1F` [Compound 588]: the figures for the pEC50 in test [1] (setting [8]) and in test [2] (setting [9]) were 8.00 and 8.40, respectively.

Turning to `Cc1cc(Nc2c(-c3ccc(F)cc3)nc3n2CCN(C(=O)C(C)(C)N)C3(C)C)ccc1Cl` [Compound 589], the pEC50 in test [1] (setting [8]) is 8.00; in test [2] (setting [9]), 8.22.

As to `Cc1ccc(Nc2c(-c3ccc(F)cc3)nc3n2CCN(C(=O)C(C)(C)N)C3(C)C)cc1C#N` [Compound 590], the pEC50 in test [1] (setting [8]) was 7.52; in test [2] (setting [9]), 7.74.

`CC(C)(N)C(=O)N1CCn2c(nc(-c3ccc(F)cc3)c2Nc2ccc(C#N)c(Cl)c2)C1(C)C` [Compound 591]: the figures for the pEC50 in test [1] (setting [8]) and in test [2] (setting [9]) were 7.22 and 7.34, respectively.

Regarding `Cc1ccc(Nc2c(-c3cccc(F)c3)nc3n2C(C)(C)CN(C(=O)[C@@H](O)C(C)C)C3)cc1` [Compound 592], the pEC50 in test [1] (setting [8]) is 5.22; in test [2] (setting [9]), 5.28.

On to `Cc1ccc(Nc2c(-c3cccc(F)c3)nc3n2C(C)(C)CN(C(=O)C(C)(C)N)C3)cc1` [Compound 593], for which the figures for the pEC50 in test [1] (setting [8]) and in test [2] (setting [9]) were 5.30 and 5.40, respectively.

Turning to `Cc1ccc(Nc2c(-c3cccc(F)c3)nc3n2C(C)(C)CN(C(=O)CN)C3)cc1` [Compound 594], the figures for the pEC50 in test [1] (setting [8]) and in test [2] (setting [9]) were 7.70 and 7.49, respectively.

Consider `CC(C)[C@H]1c2nc(-c3ccc(F)cc3)c(Nc3ccc(Cl)c(F)c3)n2CCN1C(=O)CN` [Compound 595], for which the values for the pEC50 in test [1] (setting [8]) and in test [2] (setting [9]) were 6.47 and 6.31, respectively.

As to `C[C@@H]1c2nc(-c3ccc(F)cc3)c(Nc3ccc(Cl)c(F)c3)n2CCN1C(=O)CN` [Compound 596], the pEC50 in test [1] (setting [8]) was 7.52; in test [2] (setting [9]) it was 7.54.

Turning to `C[C@H]1c2nc(-c3ccc(F)cc3)c(Nc3ccc(Cl)c(F)c3)n2CCN1C(=O)CN` [Compound 597], the pEC50 is 7.52 in test [1] (setting [8]) and 7.62 in test [2] (setting [9]).

Take `CC1(C)c2nc(-c3ccc(F)cc3)c(Nc3ccc(F)cc3)n2CC(=O)N1CCN` [Compound 687, 7-(2-aminoethyl)-2-(4-fluorophenyl)-3-(4-fluorophenylamino)-8,8-dimethyl-7,8-dihydroimidazo[1,2-a]pyrazin-6(5H)-one]: the pEC50 in test [3] (Plasmodium falciparum) and in test [4] was 5.47 throughout.

Take `CC1(C)c2nc(-c3ccc(F)cc3)c(Nc3ccc(F)cc3)n2CC(=O)N1CCO` [Compound 688]: the pEC50 in test [3] (Plasmodium falciparum) was 6.87; in test [4], 6.97.

With `CC1(C)c2nc(-c3ccc(F)cc3)c(CC3CCCCC3)n2CCN1C(=O)CN` [Compound 699], the pEC50 in test [4] is 6.17.

Regarding `CC1(C)c2nc(-c3ccc(F)cc3)c(Oc3ccc(Cl)cc3)n2CCN1C(=O)CN` [Compound 710], the pEC50 in test [4] was 7.55.

As to `CC1(C)c2nc(-c3ccc(F)cc3)c(Oc3ccc(F)c(F)c3)n2CCN1C(=O)CN` [Compound 711], the pEC50 in test [4] was 7.47.

On to `Cc1cc(Oc2c(-c3ccc(F)cc3)nc3n2CCN(C(=O)CN)C3(C)C)ccc1F` [Compound 712], for which the pEC50 in test [4] is 7.72.

As to `Cc1ccc(S(=O)(=O)c2c(-c3ccc(F)cc3)nc3n2CCN(C(=O)CN)C3(C)C)cc1` [Compound 725], in test [4], the pEC50 was 5.28.

As for `CC1(C)c2nc(-c3ccc(F)cc3)c(Nc3ccc(F)cc3)n2CCN1C(=O)CNC(=O)CCC1=[N+]2C(=Cc3ccc(-c4ccccc4)n3[B-]2(F)F)C=C1` [Compound 731], the pEC50 in test [3] (Plasmodium falciparum) was 5.25; in test [4], 5.64.

As for `COc1ccc(-c2ccc3n2[B-](F)(F)[N+]2=C(C)C(CCC(=O)NCCCCCC(=O)NCC(=O)N4CCn5c(nc(-c6ccc(F)cc6)c5Nc5ccc(F)cc5)C4(C)C)=C(C)C2=C3)cc1` [Compound 732], the results for the pEC50 in test [3] (Plasmodium falciparum) and in test [4] were 5.84 and 5.91, respectively.

A word on the pIC50: it is −log10 of the IC50, conventionally taken in molar units. Consider `CC(C)(N)C(=O)N1CCn2c(nc(-c3ccc(F)cc3)c2Nc2ccc(F)c(F)c2)C1` [Example 29, 2-amino-1-(3-(3,4-difluorophenylamino)-2-(4-fluorophenyl)-5,6-dihydroimidazo[1,2-a]pyrazin-7(8H)-yl)-2-methylpropan-1-one], for which the pEC50 is 7.52 in test [1] (setting [8]), 5.15 in test [5] and 7.44 in test [3]. Also, in test [6], the “inhibition of MK-2” value is recorded as 15%. In test [7], the pIC50 was under 4.52.

Consider `CC1(C)c2nc(-c3ccc(F)cc3)c(Nc3ccc(F)cc3)n2CCN1C(=O)CN` [example 412, 2-amino-1-(2-(4-fluorophenyl)-3-(4-fluorophenylamino)-8,8-dimethyl-5,6-dihydroimidazo[1,2-a]pyrazin-7(8H)-yl)ethanone], for which the pEC50 in test [1] (setting [8]) was 8.00; in test [5], 5.00; in test [2] (setting [9]), 8.22. Further, the “inhibition of MK-2” value in test [6] is listed as 7%. For the same compound, the pIC50 in test [7] is 4.62.

For the compound “tert-butyl 1-(2-(4-fluorophenyl)-5,6-dihydroimidazo[1,2-a]pyrazin-7(8H)-yl)-2-methyl-1-oxopropan-2-ylcarbamate [Compound 530]”, the pEC50 was 5.91 in test [1] and 5.19 in test [2] (W2 strain).
